In patent publication US20130053430A1, “MODULATION OF CETP EXPRESSION” (Isis Pharmaceuticals, Inc., priority 2010, published 2013):
e = 2'-O-(2-methoxyethyl) (MOE); d = 2'-deoxy (DNA)

Legend:
[1] = test system: human CETP mRNA; experiment: Antisense inhibition of human CETP mRNA in SW872 liposarcoma cells (Example 1); type: cell-based; conditions: 150 nM antisense oligonucleotide, lipofectin, ~24 hours, relative to untreated control cells
Outline: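 SW872 cells transfected (lipofectin) with 150 nM 5-10-5 MOE gapmer (phosphorothioate, 5-methylcytosine). After about 24 h, CETP mRNA measured by qRT-PCR, normalized to GAPDH; values are % inhibition versus untreated cells.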

[2] = test system: human CETP mRNA; experiment: Dose-dependent antisense inhibition of human CETP in SW872 liposarcoma cells (Example 2); type: cell-based; conditions: Lipofectin, ~16 hours (Example 2)
Procedure: Cells were plated at a density of 50,000 cells per well in a 24-well plate and transfected using Lipofectin reagent with 50 nM, 150 nM, and 300 nM concentrations of each antisense oligonucleotide. After approximately 16 hours, RNA was isolated from the cells and CETP mRNA levels were measured by quantitative real-time PCR. CETP mRNA levels were normalized to total RNA content, as measured by the house-keeping gene, GAPDH mRNA levels. Results are presented in Table 4 as percent inhibition of CETP, relative to untreated control cells.

[3] = test system: human CETP mRNA; experiment: Antisense inhibition of human CETP mRNA in primary hepatocytes from huCETP transgenic mice (Example 4); type: cell-based, mouse; conditions: cytofectin, ~24 hours
Outline: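 Primary hepatocytes from human CETP transgenic mice, 17,500 cells/well, transfected by cytofectin with 100 nM or 200 nM antisense oligonucleotide. After about 24 h, CETP mRNA quantified by real-time PCR, normalised to GAPDH, as percent inhibition versus untreated cells.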

[4] = test system: human CETP mRNA; experiment: Liver CETP mRNA in huCETP transgenic mice, normal chow (Example 5); type: in vivo; conditions: 50 mg/kg i.p. twice per week for 6 weeks, relative to PBS control
Procedure: Male huCETP transgenic mice were maintained on a 12-hour light/dark cycle and fed ad libitum normal Purina mouse chow. Animals were acclimated for at least 7 days in the research facility before initiation of the experiment. Antisense oligonucleotides (ASOs) were prepared in buffered saline (PBS) and sterilized by filtering through a 0.2 micron filter. Oligonucleotides were dissolved in 0.9% PBS for injection.
(§1) The mice were divided into five treatment groups. The first four groups received intraperitoneal injections of ISIS 349511, ISIS 349512, ISIS 349515, or ISIS 349517 at a dose of 50 mg/kg twice per week for 6 weeks. The fifth group received intraperitoneal injections of saline twice weekly for 6 weeks.
Twenty four hours after the final dose, the animals were sacrificed and liver tissue was isolated. Liver RNA was isolated for real-time PCR analysis of CETP. Two primer probe sets, hCETP (forward sequence […], designated herein as SEQ ID NO: 118; reverse sequence […], designated herein as SEQ ID NO: 119; probe sequence TGCGGACCGATGCCCCTGAX, designated herein as SEQ ID NO: 120) and hCETP2_LTS00182 (forward sequence […], designated herein as SEQ ID NO: 38; reverse sequence GGCTCACGCCTTTGCTGTT, designated herein as SEQ ID NO: 39: probe sequence CGGCTCGAGGTAGTGTTTACAGCCCTCX, designated herein as SEQ ID NO: 40), were used. These primer probe sets target the CETP mRNA transcript at different regions. As presented in Table 7, treatment with antisense oligonucleotides reduced CETP mRNA expression. The primer probe sets were used individually and collectively to measure CETP mRNA expression and gave similar results in all three cases. The RNA expression levels were normalized to murine Cyclophilin, a house-keeping gene, which is constitutively expressed. Cyclophilin levels were measured using the primer probe set described in Table 2. The results are expressed as percent inhibition of CETP mRNA, relative to the PBS control.

[5] = test system: CETP protein; experiment: Plasma CETP protein by ELISA in huCETP transgenic mice (Example 5); type: in vivo, human; conditions: normal chow, 50 mg/kg i.p. twice per week for 6 weeks, compared to PBS control
Procedure: as §1
Plasma levels of CETP protein were measured by ELISA (Alpco, N.H.). […] The results are expressed as percentage inhibition compared to the PBS control.

[6] = Body and organ weights of huCETP transgenic mice (Example 5); type: in vivo; conditions: 50 mg/kg i.p. twice per week
Procedure: as §1
The body weights of the mice were measured pre-dose and regularly during the treatment period. The body weights are presented in Table 10, and are expressed in grams.

[7] = Plasma glucose in huCETP transgenic mice (Example 5); type: in vivo; conditions: 50 mg/kg i.p. twice per week
Procedure: as §1
Plasma glucose values were determined using a Beckman Glucose Analyzer II (Beckman Coulter) by a glucose oxidase method (Lott, J. A. et al., Clin. Chem. 21: 1754-1760, 1975).

[8] = Plasma cholesterol and triglyceride levels in huCETP transgenic mice (Example 5); type: in vivo; conditions: 50 mg/kg i.p. twice per week
Procedure: as §1
Plasma cholesterol were extracted at weeks 3 and 6 by the method of Bligh and Dyer (Bligh, E. G. and Dyer, W. J. Can. J. Biochem. Physiol. 37: 911-917, 1959) and measured with an Olympus clinical analyzer (Hitachi Olympus AU400e, Melville, N.Y.). HDL, LDL and VLDL cholesterol were individually measured by HPLC. Triglyceride levels were measured with the use of a commercially available triglyceride kit (DCL Triglyceride Reagent; Diagnostic Chemicals Ltd.). The results are presented in Tables 13 and 14 and are expressed in mg/dL. There was a significant increase in HDL levels in mice treated with ISIS oligonucleotides.

Substance: ISIS 349512: 5-10-5 MOE gapmer TTGCCTTCTGCTACAAGCCC (sugars from the 5' end e5 d10 e5, backbone and methylation of C not given here)
- % inhibition [1]: 92%
- percent inhibition of CETP ([2]; 50 nM): 86%
- percent inhibition of CETP ([2]; 150 nM): 98%
- percent inhibition of CETP ([2]; 300 nM): 97%
- Percent inhibition of human CETP mRNA ([3]; 100 nM): 86%
- Percent inhibition of human CETP mRNA ([3]; 200 nM): 96%
- Percent inhibition of liver CETP mRNA expression, Combined primer probe sets [4]: 95%
- Percent inhibition of liver CETP mRNA expression, Primer probe set hCETP [4]: 96%
- Percent inhibition of liver CETP mRNA expression, Primer probe set hCETP2_LTS00182 [4]: 94%
- Percent inhibition of plasma CETP protein levels [5]: 76%
- Body weights ([6]; Week 0): 19 grams
- Body weights ([6]; Week 1): 21 grams
- Body weights ([6]; Week 2): 24 grams
- Body weights ([6]; Week 4): 26 grams
- Body weights ([6]; week 6): 28 grams
- Organ weights, Kidney ([6]; week 6): 333.8 mg
- Organ weights, Liver ([6]; week 6): 2.1 g
- Organ weights, Spleen ([6]; week 6): 86.8 mg
- Glucose levels ([7]; week 3): 267 mg/dL
- Glucose levels ([7]; week 6): 248 mg/dL
- Percentage of HDL in total cholesterol ([8]; Week 3): 74%
- Percentage of HDL in total cholesterol ([8]; week 6): 74%
- HDL ([8]; plasma, week 3): 62 mg/dL
- LDL ([8]; plasma, week 3): 14 mg/dL
- Total cholesterol ([8]; plasma, week 3): 85 mg/dL
- Triglycerides ([8]; plasma, week 3): 100 mg/dL
- HDL ([8]; plasma, week 6): 100 mg/dL
- LDL ([8]; plasma, week 6): 31 mg/dL
- Total cholesterol ([8]; plasma, week 6): 134 mg/dL
- Triglycerides ([8]; plasma, week 6): 92 mg/dL
- VLDL ([8]; plasma, week 6): 3 mg/dL
